The source made the active and inactive calls. No cut-off for these calls is given here.
Experiments:
[1] = Metabolic stability in human hepatocyte assessed as extraction ratio at 4 hrs; type: ADME, cell-based; details: hepatocytes
[2] = Cytotoxicity against human CEM-SS cells by XTT assay; type: cell-based
[3] = tested on: Human immunodeficiency virus 1; assay: Antiviral activity against HIV1 RF infected in human CEM-SS cells assessed as inhibition of virus-induced cytopathic effect after 6 days by XTT assay; type: functional, organism-based; details: Human immunodeficiency virus 1, RF, 144 h
[4] = biological target: Human immunodeficiency virus type 1 integrase (Human immunodeficiency virus 1, UniProt Q7ZJM1); assay: Inhibition of HIV1 RF integrase after 50 mins by strand transfer scintillation proximity assay
[5] = Plasma clearance in dog at 1 mg/kg, iv and 5 mg/kg, po; type: ADME, organism-based, Canis lupus familiaris
[6] = Half life in dog at 1 mg/kg, iv and 5 mg/kg, po; type: ADME, organism-based, Canis lupus familiaris; details: in vivo
[7] = Volume of distribution at steady state in dog at 1 mg/kg, iv and 5 mg/kg, po; type: ADME, organism-based, Canis lupus familiaris; details: in vivo, read-out: Vdss
[8] = Oral bioavailability in dog at 1 mg/kg, iv and 5 mg/kg, po; type: ADME, organism-based, Canis lupus familiaris; details: in vivo
[9] = Volume of distribution at steady state in human; type: ADME, organism-based; details: in vivo, read-out: Vdss
Cytochrome P450 2C19 = Cytochrome P450 2C19 (Homo sapiens, UniProt P33261); assay: Inhibition of CYP2C19; type: ADME
Cytochrome P450 3A4 = Cytochrome P450 3A4 (Homo sapiens, UniProt P08684); assay: Inhibition of CYP3A4; type: ADME
[10] = Blood clearance in human; type: ADME, organism-based; details: whole blood
Hepacivirus hominis = assay: Inhibition of HCV RNA-directed RNA polymerase
[11] = Inhibition of magnesium dependent protein kinase
[12] = biological target: Voltage-gated inwardly rectifying potassium channel KCNH2 (Homo sapiens, UniProt Q12809); assay: Inhibition of human ERG
[13] = Oral bioavailability in human; type: ADME, organism-based; details: in vivo
Cytochrome P450 1A2 = biological target: T1, Cytochrome P450 1A2 (Homo sapiens, UniProt P05177); assay: Inhibition of CYP1A2; type: ADME
T1 sequence (P05177 whole entry): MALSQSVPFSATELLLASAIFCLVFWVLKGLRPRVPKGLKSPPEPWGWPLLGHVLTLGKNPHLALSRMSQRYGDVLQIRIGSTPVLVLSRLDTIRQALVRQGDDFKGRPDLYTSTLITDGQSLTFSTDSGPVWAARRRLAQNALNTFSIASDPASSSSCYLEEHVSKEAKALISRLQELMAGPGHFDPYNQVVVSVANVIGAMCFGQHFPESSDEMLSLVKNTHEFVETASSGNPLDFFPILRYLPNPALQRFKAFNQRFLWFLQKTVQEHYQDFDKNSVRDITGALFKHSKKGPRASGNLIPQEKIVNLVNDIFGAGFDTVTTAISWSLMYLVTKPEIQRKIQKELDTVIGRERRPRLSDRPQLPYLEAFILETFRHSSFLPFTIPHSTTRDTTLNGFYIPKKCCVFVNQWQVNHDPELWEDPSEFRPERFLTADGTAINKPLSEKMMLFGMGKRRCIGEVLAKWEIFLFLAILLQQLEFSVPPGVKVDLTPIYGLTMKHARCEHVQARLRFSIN

Cytochrome P450 2C8 = biological target: T2, Cytochrome P450 2C8 (Homo sapiens, UniProt P10632); assay: Inhibition of CYP2C8; type: ADME
T2 sequence (P10632 whole entry): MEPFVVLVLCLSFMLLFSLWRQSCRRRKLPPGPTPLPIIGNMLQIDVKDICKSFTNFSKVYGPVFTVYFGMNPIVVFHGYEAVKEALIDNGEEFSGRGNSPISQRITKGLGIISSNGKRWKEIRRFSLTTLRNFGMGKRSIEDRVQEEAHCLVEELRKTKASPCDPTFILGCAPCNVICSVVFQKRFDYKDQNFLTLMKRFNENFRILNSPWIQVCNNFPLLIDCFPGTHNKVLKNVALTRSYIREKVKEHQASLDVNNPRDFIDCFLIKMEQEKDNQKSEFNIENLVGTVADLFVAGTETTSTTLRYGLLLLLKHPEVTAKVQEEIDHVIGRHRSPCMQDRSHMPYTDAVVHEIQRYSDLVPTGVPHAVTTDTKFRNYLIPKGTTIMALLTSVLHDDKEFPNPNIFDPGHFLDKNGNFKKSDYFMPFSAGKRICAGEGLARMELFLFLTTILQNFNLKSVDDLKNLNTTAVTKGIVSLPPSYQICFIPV

Cytochrome P450 2C9 = Cytochrome P450 2C9 (Homo sapiens, UniProt P11712); assay: Inhibition of CYP2C9; type: ADME
[14] = Inhibition of matrix metalloprotease
Cytochrome P450 2D6 = Cytochrome P450 2D6 (Homo sapiens, UniProt P10635); assay: Inhibition of CYP2D6; type: ADME
Cytochrome P450 2D6, sequence (P10635 whole entry): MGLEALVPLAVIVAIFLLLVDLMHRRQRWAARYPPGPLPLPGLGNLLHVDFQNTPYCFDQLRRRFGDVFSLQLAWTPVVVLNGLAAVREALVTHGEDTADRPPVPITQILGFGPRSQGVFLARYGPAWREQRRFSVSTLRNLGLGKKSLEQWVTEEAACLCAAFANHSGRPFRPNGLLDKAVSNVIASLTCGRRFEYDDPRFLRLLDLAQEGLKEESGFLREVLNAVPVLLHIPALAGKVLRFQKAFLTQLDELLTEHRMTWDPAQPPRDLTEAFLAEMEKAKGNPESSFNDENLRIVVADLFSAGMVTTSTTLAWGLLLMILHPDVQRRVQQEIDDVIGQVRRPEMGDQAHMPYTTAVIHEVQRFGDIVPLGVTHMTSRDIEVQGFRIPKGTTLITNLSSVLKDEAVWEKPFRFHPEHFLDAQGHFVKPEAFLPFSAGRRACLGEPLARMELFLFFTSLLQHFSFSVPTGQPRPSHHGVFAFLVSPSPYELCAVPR

Human immunodeficiency virus type 1 integrase, sequence (Q7ZJM1 whole entry): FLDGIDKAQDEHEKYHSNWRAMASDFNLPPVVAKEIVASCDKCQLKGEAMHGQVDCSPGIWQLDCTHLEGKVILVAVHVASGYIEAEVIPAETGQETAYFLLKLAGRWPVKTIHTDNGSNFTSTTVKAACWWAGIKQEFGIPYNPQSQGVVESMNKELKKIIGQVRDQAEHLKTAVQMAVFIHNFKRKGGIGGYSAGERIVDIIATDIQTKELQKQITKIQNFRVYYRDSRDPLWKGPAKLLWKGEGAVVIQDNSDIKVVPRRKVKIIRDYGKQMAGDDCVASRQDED
Cytochrome P450 3A4, sequence (P08684 whole entry): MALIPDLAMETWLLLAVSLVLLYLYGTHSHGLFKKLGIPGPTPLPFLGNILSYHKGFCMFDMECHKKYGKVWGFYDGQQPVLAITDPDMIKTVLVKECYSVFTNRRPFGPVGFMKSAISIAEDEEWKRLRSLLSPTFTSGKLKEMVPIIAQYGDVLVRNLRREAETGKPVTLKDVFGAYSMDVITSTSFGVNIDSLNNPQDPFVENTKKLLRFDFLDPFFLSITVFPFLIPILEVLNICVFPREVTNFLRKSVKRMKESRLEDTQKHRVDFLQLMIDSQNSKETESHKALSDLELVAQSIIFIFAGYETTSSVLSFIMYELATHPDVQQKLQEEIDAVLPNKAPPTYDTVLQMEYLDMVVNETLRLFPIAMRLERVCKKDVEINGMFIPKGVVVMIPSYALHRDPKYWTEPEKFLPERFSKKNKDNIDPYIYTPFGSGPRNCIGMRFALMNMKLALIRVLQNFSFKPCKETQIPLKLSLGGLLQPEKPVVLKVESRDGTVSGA
Cytochrome P450 2C19, sequence (P33261 whole entry): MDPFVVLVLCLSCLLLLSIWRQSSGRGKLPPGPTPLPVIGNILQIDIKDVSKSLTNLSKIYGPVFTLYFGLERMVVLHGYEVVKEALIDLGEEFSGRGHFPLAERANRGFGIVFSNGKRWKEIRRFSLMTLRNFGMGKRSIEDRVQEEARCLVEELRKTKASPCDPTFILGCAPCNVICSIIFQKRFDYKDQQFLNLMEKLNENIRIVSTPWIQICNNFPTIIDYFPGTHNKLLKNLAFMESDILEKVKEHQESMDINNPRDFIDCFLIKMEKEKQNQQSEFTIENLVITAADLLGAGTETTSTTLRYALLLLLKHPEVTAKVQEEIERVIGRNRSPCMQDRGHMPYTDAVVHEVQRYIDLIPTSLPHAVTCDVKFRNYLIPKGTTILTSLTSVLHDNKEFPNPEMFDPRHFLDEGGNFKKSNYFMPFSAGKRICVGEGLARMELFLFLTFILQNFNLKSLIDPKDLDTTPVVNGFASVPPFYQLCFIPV
Voltage-gated inwardly rectifying potassium channel KCNH2, sequence (Q12809 whole entry): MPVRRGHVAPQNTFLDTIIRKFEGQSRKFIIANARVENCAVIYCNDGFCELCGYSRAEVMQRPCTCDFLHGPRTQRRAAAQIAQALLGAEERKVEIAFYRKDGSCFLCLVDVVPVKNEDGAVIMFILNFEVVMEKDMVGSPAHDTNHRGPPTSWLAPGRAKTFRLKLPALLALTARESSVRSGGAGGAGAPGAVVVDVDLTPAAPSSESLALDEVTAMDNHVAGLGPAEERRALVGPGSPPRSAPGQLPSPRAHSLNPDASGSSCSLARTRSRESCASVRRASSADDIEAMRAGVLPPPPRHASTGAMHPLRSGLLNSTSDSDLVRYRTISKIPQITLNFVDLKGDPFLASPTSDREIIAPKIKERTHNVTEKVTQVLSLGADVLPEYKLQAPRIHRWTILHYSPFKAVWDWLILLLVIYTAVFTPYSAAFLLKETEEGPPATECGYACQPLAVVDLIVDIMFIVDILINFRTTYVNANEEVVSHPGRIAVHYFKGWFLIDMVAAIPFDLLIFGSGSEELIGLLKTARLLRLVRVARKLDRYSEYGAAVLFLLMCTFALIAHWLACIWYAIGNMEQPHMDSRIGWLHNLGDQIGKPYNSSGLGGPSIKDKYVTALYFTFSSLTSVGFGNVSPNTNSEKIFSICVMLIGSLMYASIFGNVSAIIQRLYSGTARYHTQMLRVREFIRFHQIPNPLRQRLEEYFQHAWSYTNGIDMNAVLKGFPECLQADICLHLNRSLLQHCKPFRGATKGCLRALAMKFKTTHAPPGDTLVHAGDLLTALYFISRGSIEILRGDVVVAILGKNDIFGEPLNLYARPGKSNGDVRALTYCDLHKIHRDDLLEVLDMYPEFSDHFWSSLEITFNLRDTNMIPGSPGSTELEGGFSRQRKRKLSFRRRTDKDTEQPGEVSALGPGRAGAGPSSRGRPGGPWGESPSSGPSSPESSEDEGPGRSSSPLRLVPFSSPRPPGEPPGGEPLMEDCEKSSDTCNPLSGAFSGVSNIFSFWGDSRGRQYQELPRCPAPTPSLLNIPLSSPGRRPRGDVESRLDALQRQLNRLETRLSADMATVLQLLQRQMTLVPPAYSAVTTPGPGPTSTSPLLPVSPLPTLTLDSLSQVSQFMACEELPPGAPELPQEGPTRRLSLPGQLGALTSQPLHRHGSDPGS
Cytochrome P450 2C9, sequence (P11712 whole entry): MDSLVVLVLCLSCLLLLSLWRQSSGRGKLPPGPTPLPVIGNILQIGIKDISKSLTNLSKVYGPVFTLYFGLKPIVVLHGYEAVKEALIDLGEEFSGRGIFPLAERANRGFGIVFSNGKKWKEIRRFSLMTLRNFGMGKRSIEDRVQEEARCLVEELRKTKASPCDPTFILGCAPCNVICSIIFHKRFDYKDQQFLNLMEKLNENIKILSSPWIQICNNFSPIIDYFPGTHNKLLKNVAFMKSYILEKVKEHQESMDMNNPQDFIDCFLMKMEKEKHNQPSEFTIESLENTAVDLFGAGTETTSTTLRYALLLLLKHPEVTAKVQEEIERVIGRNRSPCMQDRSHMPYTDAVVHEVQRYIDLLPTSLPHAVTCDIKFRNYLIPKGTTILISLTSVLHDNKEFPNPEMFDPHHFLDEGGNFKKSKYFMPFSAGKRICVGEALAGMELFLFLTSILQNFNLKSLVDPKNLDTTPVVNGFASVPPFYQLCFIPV

| hepatic extraction ratio at 4 h [1] | IC50 [4] [µM] | SMILES | CC50 [2] [µM] | EC50 [3] [µM] | also measured |
| --- | --- | --- | --- | --- | --- |
| 0.98 | 0.559 | CN(O)C(=O)c1cc2c(CCCN3CCOCC3)cn(Cc3ccc(F)cc3)c2cn1 | > 10 | 0.47 | – |
| 1 | 0.34 | CN(O)C(=O)c1cc2c(CCCO)cn(Cc3ccc(F)cc3)c2cn1 | > 10 | 0.041 | – |
| 0.55 | 1.42 | CN(O)C(=O)c1cc2c(CN3CCC(O)C3)cn(Cc3ccc(F)cc3)c2cn1 (stereo not given) | > 100 | 0.747 | – |
| – | 0.25 | CN(O)C(=O)c1cc2ccn(Cc3ccc(F)cc3F)c2cn1 | 200 | 0.039 | – |
| – | – | CN(O)C(=O)c1cc2c(CN3CCC[C@@H]3C(N)=O)cn(Cc3ccc(F)cc3)c2cn1 | > 100 | 0.08 | – |
| 0.55 | 0.534 | CN1CCN(Cc2cn(Cc3ccc(F)cc3)c3cnc(C(=O)N(C)O)cc23)CC1 | > 224 | 0.22 | – |
| – | 0.25 | CN(O)C(=O)c1cc2ccn(Cc3ccc(F)cc3)c2cn1 | 135 | – | – |
| 0.51 | 0.382 | COCCOCc1cn(Cc2ccc(F)cc2)c2cnc(C(=O)N(C)O)cc12 | > 100 | 0.029 | – |
| 1 | 0.145 | CN(O)C(=O)c1cc2c(CO)cn(Cc3ccc(F)cc3)c2cn1 | > 266 | 0.054 | – |
| – | – | CN(O)C(=O)c1cc2c(CN3CCC[C@H]3C(N)=O)cn(Cc3ccc(F)cc3)c2cn1 | 216 | – | Vd [9]: 2.15 L/kg; IC50 (Cytochrome P450 2C19): > 30 µM; clearance [5]: 0.9 L/h/kg; IC50 (Cytochrome P450 3A4): > 30 µM; clearance [10]: 0.33 L/h/kg; inhibition (Hepacivirus hominis): inactive; IC50 [11]: > 1 µM; IC50 [12]: > 30 µM; bioavailability [13]: 41%; IC50 (Cytochrome P450 1A2): > 30 µM; half-life [6]: 6.2 h; IC50 (Cytochrome P450 2C8): > 30 µM; Vd [7]: 2.32 L/kg; IC50 (Cytochrome P450 2C9): > 30 µM; IC50 [14]: > 50 µM; bioavailability [8]: 53%; IC50 (Cytochrome P450 2D6): > 30 µM |
| 0.97 | 0.552 | COCCOCCCc1cn(Cc2ccc(F)cc2)c2cnc(C(=O)N(C)O)cc12 | > 10 | 0.22 | – |
| 1 | 0.242 | COCc1cn(Cc2ccc(F)cc2)c2cnc(C(=O)N(C)O)cc12 | 266 | 0.041 | – |

| SMILES | hepatic extraction ratio at 4 h [1] | IC50 [4] [µM] | CC50 [2] [µM] | EC50 [3] [µM] | also measured |
| --- | --- | --- | --- | --- | --- |
| CCOCCOCc1cn(Cc2ccc(F)cc2)c2cnc(C(=O)N(C)O)cc12 | 0.57 | 0.308 | 81 | 0.057 | – |
| CN(O)C(=O)c1cc2c(C(=O)N3CCC[C@@H]3CO)cn(Cc3ccc(F)cc3)c2cn1 | 0.2 | 0.319 | > 32 | 0.17 | – |
| CN(O)C(=O)c1cc2c(COC3CCOCC3)cn(Cc3ccc(F)cc3)c2cn1 | 0.86 | 0.313 | > 100 | 0.057 | – |
| CC(C)NC(=O)c1cn(Cc2ccc(F)cc2)c2cnc(C(=O)N(C)O)cc12 | 0.25 | 0.251 | > 100 | 0.11 | – |
| CN(O)C(=O)c1cc2c(CN3CCNC(=O)C3)cn(Cc3ccc(F)cc3)c2cn1 | 0.3 | 0.388 | > 100 | 0.15 | clearance [5]: 1.44 L/h/kg; half-life [6]: 1.27 h; Vd [7]: 1.8 L/kg; bioavailability [8]: 20% |
| CN(O)C(=O)c1cc2c(C(=O)NCCN3CCOCC3)cn(Cc3ccc(F)cc3)c2cn1 | 0.25 | 0.503 | 32 | 0.21 | – |
